The text below walks through data of patent US12581252B2, “Substituted pyrrolo[3,4-b]pyridines as PI3K-α inhibitors” (Relay Therapeutics, Inc., priority 2020, dated 2026).

SMILES strings stand for the structures. Where only a bound is given, the exact number is not on record here.

H1047R PIK3CA enzyme, sequence (P42336 whole entry H1047R): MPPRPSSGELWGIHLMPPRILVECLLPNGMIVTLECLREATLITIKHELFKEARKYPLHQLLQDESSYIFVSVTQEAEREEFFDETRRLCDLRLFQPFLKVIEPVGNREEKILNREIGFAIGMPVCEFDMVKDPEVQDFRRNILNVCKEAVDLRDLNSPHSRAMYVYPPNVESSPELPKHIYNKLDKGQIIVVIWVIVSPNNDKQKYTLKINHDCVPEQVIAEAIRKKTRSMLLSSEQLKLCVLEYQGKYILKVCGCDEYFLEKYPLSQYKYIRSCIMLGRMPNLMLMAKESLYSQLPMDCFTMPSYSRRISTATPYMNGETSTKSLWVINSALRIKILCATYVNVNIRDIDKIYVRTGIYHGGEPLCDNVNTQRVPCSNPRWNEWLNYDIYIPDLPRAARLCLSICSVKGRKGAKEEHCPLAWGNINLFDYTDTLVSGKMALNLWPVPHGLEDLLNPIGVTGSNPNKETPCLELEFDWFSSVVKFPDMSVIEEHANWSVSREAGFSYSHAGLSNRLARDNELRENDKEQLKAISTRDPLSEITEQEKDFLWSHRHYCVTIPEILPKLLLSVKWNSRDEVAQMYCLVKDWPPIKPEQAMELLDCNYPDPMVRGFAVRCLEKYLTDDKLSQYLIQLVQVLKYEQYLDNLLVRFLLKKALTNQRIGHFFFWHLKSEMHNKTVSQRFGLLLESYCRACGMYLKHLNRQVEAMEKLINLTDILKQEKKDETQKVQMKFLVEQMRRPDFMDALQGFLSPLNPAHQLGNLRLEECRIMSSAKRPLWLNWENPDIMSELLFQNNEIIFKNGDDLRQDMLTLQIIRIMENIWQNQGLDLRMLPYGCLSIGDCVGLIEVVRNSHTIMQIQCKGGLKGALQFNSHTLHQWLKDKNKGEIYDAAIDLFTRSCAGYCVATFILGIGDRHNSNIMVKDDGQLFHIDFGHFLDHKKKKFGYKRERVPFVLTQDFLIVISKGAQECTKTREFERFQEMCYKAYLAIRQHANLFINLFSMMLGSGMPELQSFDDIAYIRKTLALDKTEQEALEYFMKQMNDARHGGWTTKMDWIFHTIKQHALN
H1047R PIK3CA enzyme, sequence (P27986 whole entry partner): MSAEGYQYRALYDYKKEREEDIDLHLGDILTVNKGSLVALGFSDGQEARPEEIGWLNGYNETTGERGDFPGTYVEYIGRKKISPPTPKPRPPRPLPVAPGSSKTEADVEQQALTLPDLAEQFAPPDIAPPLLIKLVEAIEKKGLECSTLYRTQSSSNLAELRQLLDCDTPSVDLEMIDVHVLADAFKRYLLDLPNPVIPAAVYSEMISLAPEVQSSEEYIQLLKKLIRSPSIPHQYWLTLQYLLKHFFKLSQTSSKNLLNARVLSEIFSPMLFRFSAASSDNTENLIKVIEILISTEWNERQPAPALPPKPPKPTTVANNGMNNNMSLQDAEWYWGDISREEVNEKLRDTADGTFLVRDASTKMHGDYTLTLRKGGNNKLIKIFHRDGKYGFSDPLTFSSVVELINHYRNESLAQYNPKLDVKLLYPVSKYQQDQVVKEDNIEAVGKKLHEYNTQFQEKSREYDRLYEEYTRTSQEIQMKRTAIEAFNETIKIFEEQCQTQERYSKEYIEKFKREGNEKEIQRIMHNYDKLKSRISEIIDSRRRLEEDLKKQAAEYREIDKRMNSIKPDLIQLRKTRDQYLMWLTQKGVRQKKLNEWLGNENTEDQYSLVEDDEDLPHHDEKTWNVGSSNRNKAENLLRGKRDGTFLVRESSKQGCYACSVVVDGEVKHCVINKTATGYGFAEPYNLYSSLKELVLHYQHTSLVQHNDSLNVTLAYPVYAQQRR

This test has as its target H1047R PIK3CA enzyme (Homo sapiens, UniProt P42336, H1047R). Nature of the test: ADP-Glo Biochemical PIK3CA Kinase Assay. On the technique in general: ADP-Glo turns the ADP formed in a reaction into a luminescent signal.
As to `Cc1ccccc1[C@@H]1NC(=O)c2nccc(NC(=O)N3C[C@H](C)c4ccccc43)c21` (single isomer, unassigned) [Compound I-302], the IC50 (in general, the concentration that gives 50% inhibition) lay within 0.5 to 1 µM.
For `O=C(Nc1cc(Br)cc2c1C(c1cc(F)ccc1Cl)NC2=O)c1cnn(-c2ccccc2)c1` (centres unmarked) [Compound I-561], the IC50 fell in the range of 10 to 100 µM.
The same measure for `O=C(Nc1cccc2c1C(C1CCCNC1)NC2=O)c1cc(F)cc(C(F)(F)F)c1` (centres unmarked) [Compound I-1747]: 10 to 100 µM; for `O=C1NC(c2cc(F)ccc2Cl)c2c(NC(=O)C3CCCC3)cc(-c3ccc4ncnn4c3)cc21` (centres unmarked) [Compound I-1782]: 10 to 100 µM; for `N#Cc1cnn(Cc2cc(NC(=O)N3C[C@](O)(C(F)(F)F)c4cc(F)ccc43)c3c(c2)C(=O)N[C@H]3c2cc(F)ccc2Cl)c1` (single isomer, unassigned) [Compound I-2671]: 0.5 to 1 µM.
For the molecule `Cc1ccccc1C1NC(=O)c2c(Cl)ncc(NC(=O)c3cc(F)cc(C(F)(F)F)c3)c21` (centres unmarked) [Compound I-232, N-[4-Chloro-1-(2-methylphenyl)-3-oxo-1H,2H,3H-pyrrolo[3,4-c]pyridin-7-yl]-3-fluoro-5-(trifluoromethyl)benzamide], the IC50 lay within 0.1 to 0.5 µM.
In the case of `CC(=O)N[C@H]1CC[C@@H](C(=O)Nc2cc(-c3ccc4ncnn4c3)cc3c2C(c2cc(F)ccc2Cl)NC3=O)CC1` (mixture of isomers) [Compound I-1849], the IC50 was 10 to 100 µM.
The same measure for `O=C(Nc1cc(N[C@H]2C[C@@H](F)C2)cc2c1C(c1cc(F)ccc1Cl)NC2=O)c1cc(F)cc(C(F)(F)F)c1` (single isomer, unassigned) [Compound I-541]: ≤ 0.1 µM; for `O=C1CCC[C@H]([C@@H]2NC(=O)c3cccc(NC(=O)c4cc(F)cc(C(F)(F)F)c4)c32)C1` (single isomer, unassigned) [Compound I-2254]: 10 to 100 µM; for `Cn1cc(NS(=O)(=O)Cc2cc(NC(=O)c3cc(F)cc(C(F)(F)F)c3)c3c(c2)C(=O)NC3c2cc(F)ccc2Cl)cn1` (centres unmarked) [Compound I-1535]: ≤ 0.1 µM.
`N#CCC(O)c1cc(NC(=O)c2cc(F)cc(C(F)(F)F)c2)c2c(c1)C(=O)NC2c1cc(F)ccc1Cl` (racemic) [Compound I-1243]: the IC50 was ≤ 0.1 µM.
As to `Cn1ncnc1COc1cc(NC(=O)c2cc(F)cc(C(F)(F)F)c2)c2c(c1)C(=O)NC2c1cc(F)ccc1Cl` (centres unmarked) [Compound I-1221], the IC50 was ≤ 0.1 µM.
Molecule `O=C1NC(c2cc(F)ccc2Cl)c2c(NC(=O)C3CCNCC3)cc(-c3ccc4ncnn4c3)cc21` (centres unmarked) [Compound I-1751] showed an IC50 of 10 to 100 µM.
The result for `O=C1N[C@@H](c2cc(F)ccc2Cl)c2c(NC(=O)[C@H]3CCCNC3)cc(-c3ccc4ncnn4c3)cc21` (racemic) [Compound I-1847] reads 10 to 100 µM; that for `O=C1NC(c2cc(F)ccc2Cl)c2c(NC(=O)c3cc(F)cc4ccc(=O)[nH]c34)cc(Br)cc21` (centres unmarked) [Compound I-1424], 1 to 10 µM; that for `O=C1N[C@H](c2cc(F)ccc2Cl)c2c(NC(=O)N3CCc4ccccc43)cc(-c3ccc4ncnn4c3)cc21` (stereo in doubt) [Compound I-1716], 1 to 10 µM.
`O=C1N[C@@H](c2cc(F)ccc2Cl)c2c(NC(=O)N3C[C@H](O)c4cc(F)ccc43)cc(-n3nccn3)cc21` (single isomer, unassigned) [Compound I-2342] yielded an IC50 of 0.1 to 0.5 µM.
`NS(=O)(=O)CCNC(=O)c1cc(NC(=O)c2cc(F)cc(C(F)(F)F)c2)c2c(c1)C(=O)NC2c1cc(F)ccc1Cl` (centres unmarked) [Compound I-1469]: the IC50 is ≤ 0.1 µM.
The result for `COc1ccccc1-c1cc(NC(=O)c2cc(F)cc(C(F)(F)F)c2)c2c(c1)C(=O)NC2c1cc(F)ccc1Cl` (centres unmarked) [Compound I-1197] reads 0.1 to 0.5 µM; that for `N#CC1(n2cc(-c3cc(NC(=O)c4cc(F)cc(C(F)(F)F)c4)c4c(c3)C(=O)N[C@@H]4c3cc(F)ccc3Cl)cn2)CC1` [Compound I-1885], 0.5 to 1 µM.
Take `O=C(Nc1cc(Br)cc2c1C(c1c(F)cccc1Cl)NC2=O)c1cc(F)cc(C(F)(F)F)c1` (centres unmarked) [Compound I-681]: the IC50 lay within 1 to 10 µM.
The result for `Nc1nccc(-c2cc(NC(=O)c3cc(F)cc(C(F)(F)F)c3)c3c(c2)C(=O)NC3c2cc(F)ccc2Cl)n1` (centres unmarked) [Compound I-1090] reads ≤ 0.1 µM.
The result for `NCC(O)c1cc(NC(=O)c2cc(F)cc(C(F)(F)F)c2)c2c(c1)C(=O)NC2c1cc(F)ccc1Cl` (centres unmarked) [Compound I-1290] reads 0.1 to 0.5 µM.
Molecule `O=C1NC(c2cc(F)ccc2Cl)c2c(Nc3nc4ccccc4[nH]3)cc(-c3ccc4ncnn4c3)cc21` (centres unmarked) [Compound I-1727] showed an IC50 of 1 to 10 µM.
Regarding `N#Cc1cc(NC(=O)N2C[C@](O)(C(F)(F)F)c3cc(F)ccc32)c2c(c1)C(=O)N[C@H]2c1cc(F)ccc1Cl` (single isomer, unassigned) [Compound I-2561], the IC50 lay within 1 to 10 µM.
The result for `CN1CCN(c2cc(NC(=O)c3cc(F)cc(C(F)(F)F)c3)c3c(n2)C(=O)NC3c2cc(F)ccc2Cl)CC1` (centres unmarked) [Compound I-291] reads 0.1 to 0.5 µM; that for `Cc1ccccc1C1NC(=O)c2cccc(NC(=O)N3CCc4ccc(Cl)cc43)c21` (centres unmarked) [Compound I-110], 0.1 to 0.5 µM.
In turn, `O=C(Nc1cccc2c1[C@H](C1CC1)NC2=O)c1cc(F)cc(C(F)(F)F)c1` (single isomer, unassigned) [Compound I-2221] returned an IC50 of 10 to 100 µM.
On to `N#CCc1ccc(NC(=O)N2C[C@@](O)(C(F)(F)F)c3cc(F)ccc32)c2c1C(=O)N[C@H]2c1cc(F)ccc1Cl` (single isomer, unassigned) [Compound I-2616], for which the IC50 lay within 1 to 10 µM.
As to `O=C(Nc1cc(Br)cc2c1C(c1cc(F)ccc1Cl)NC2=O)c1cc(F)cc(C(F)F)c1` (centres unmarked) [Compound I-835], the IC50 lay in the range of 0.1 to 0.5 µM.
The same measure for `O=C(Nc1cc(Br)cc2c1C(c1cc(F)ccc1Cl)NC2=O)c1cc(F)cc(C2CCC2)c1` (centres unmarked) [Compound I-1351]: 1 to 10 µM; for `Cc1ccccc1C1NC(=O)c2cccc(NC(=O)c3coc4cc(F)ccc34)c21` (centres unmarked) [Compound I-20]: 0.5 to 1 µM; for `N#CN1CC(Oc2cc(NC(=O)c3cc(F)cc(C(F)(F)F)c3)c3c(c2)C(=O)NC3c2cc(F)ccc2Cl)C1` (centres unmarked) [Compound I-1205]: ≤ 0.1 µM.
`COc1ccc([C@H](C)N2C(=O)c3cc(Br)cc(N)c3[C@@H]2c2cc(F)ccc2Cl)cc1` (racemic) [Compound I-863] returned an IC50 of 1 to 10 µM.
Turning to `O=C1NC(c2cc(F)ccc2Cl)c2c(CO)cc(-c3ccc4ncnn4c3)cc21` (centres unmarked) [Compound I-1851], the IC50 lay in the range of 10 to 100 µM.
The same measure for `NC(=O)c1cc(NC(=O)c2cc(F)cc(C(F)(F)F)c2)c2c(c1)C(=O)NC2c1cc(F)ccc1Cl` (centres unmarked) [Compound I-555]: ≤ 0.1 µM.
The molecule `O=C(Nc1cc(C(O)CN2CC(F)(F)C2)cc2c1C(c1cc(F)ccc1Cl)NC2=O)c1cc(F)cc(Cl)c1` (centres unmarked) [Compound I-334] displayed an IC50 of 0.1 to 0.5 µM.
The same measure for `CCC[C@]1(O)CN(C(=O)Nc2cccc3c2[C@@H](c2cc(F)ccc2Cl)NC3=O)c2ccc(F)cc21` (single isomer, unassigned) [Compound I-2456]: 1 to 10 µM; for `N#CC1(COc2cc(NC(=O)N3C[C@@H](O)c4cc(F)ccc43)c3c(c2)C(=O)N[C@H]3c2cc(F)ccc2Cl)CC1` (single isomer, unassigned) [Compound I-2551]: 1 to 10 µM; for `CS(=O)(=O)N1CCC[C@H](Oc2cc(NC(=O)c3cc(F)cc(C(F)(F)F)c3)c3c(c2)C(=O)NC3c2cc(F)ccc2Cl)C1` (mixture of isomers) [Compound I-1526]: 0.1 to 0.5 µM.
In turn, `O=C1NC(c2cc(F)ccc2Cl)c2c(NC(=O)C34CC5CC(CC(O)(C5)C3)C4)cc(Br)cc21` (centres unmarked) [Compound I-1363] yielded an IC50 of 1 to 10 µM.
Molecule `O=C1N[C@@H](c2cc(F)ccc2Cl)c2c(NC(=O)N3C[C@@](O)(C(F)(F)F)c4cc(F)ccc43)cc(-n3ccnn3)cc21` (single isomer, unassigned) [Compound I-2549] came in with an IC50 of 0.1 to 0.5 µM.
`O=C1N[C@@H](c2cc(F)ccc2Cl)c2c(NC(=O)N3C[C@@](O)(C(F)(F)F)c4cc(F)ccc43)ccc(-n3nccn3)c21` (single isomer, unassigned) [Compound I-2527] displayed an IC50 of 1 to 10 µM.
The result for `Cn1cc(-c2cc(NC(=O)c3cc(F)cc(Cl)c3)c3c(n2)C(=O)N[C@@H]3c2cc(F)ccc2Cl)cn1` [Compound I-384] reads 1 to 10 µM; that for `Cc1c(F)cccc1[C@H]1NC(=O)c2cc(Br)cc(NC(=O)c3cc(F)cc(C(F)(F)F)c3)c21` [Compound I-749], 1 to 10 µM.
On to `CN1CCN(c2cc(NC(=O)c3cc(F)cc(C(F)(F)F)c3)c3c(c2)C(=O)NC3c2cc(F)ccc2Cl)CC1` (centres unmarked) [Compound I-304], for which the IC50 was ≤ 0.1 µM.
Take `O=C(Nc1cc(-c2ccn3ccnc3c2)cc2c1C(c1cc(F)ccc1Cl)NC2=O)c1cc(F)cc(C(F)(F)F)c1` (centres unmarked) [Compound I-1372]: the IC50 is ≤ 0.1 µM.
In the case of `CC(=O)Nc1cc(NC(=O)N2C[C@](O)(C(F)(F)F)c3cc(F)ccc32)c2c(c1)C(=O)N[C@H]2c1cc(F)ccc1Cl` (single isomer, unassigned) [Compound I-2574], the IC50 was 0.1 to 0.5 µM.
`CC(=O)c1cc(NC(=O)c2cc(F)cc(C(F)(F)F)c2)c2c(c1)C(=O)NC2c1cc(F)ccc1C(F)F` (centres unmarked) [Compound I-238]: the IC50 was ≤ 0.1 µM.
The same measure for `O=C1N[C@@H](c2cc(F)ccc2Cl)c2c(NC(=O)N3C[C@H](O)c4cccc(F)c43)cccc21` (single isomer, unassigned) [Compound I-2209]: 10 to 100 µM; for `Cc1ccccc1C1NC(=O)c2cccc(NC(=O)c3cc(F)cc(OC(F)(F)F)c3)c21` (centres unmarked) [Compound I-318]: 0.5 to 1 µM; for `Cc1ccccc1C1NC(=O)c2cccc(NC(=O)c3cccc4c3CCCO4)c21` (centres unmarked) [Compound I-11]: 10 to 100 µM.
Take `N#CCc1cc(NC(=O)N2C[C@@](O)(C(F)(F)F)c3ccccc32)c2c(c1)C(=O)N[C@H]2c1cc(F)ccc1Cl` (single isomer, unassigned) [Compound I-2602]: the IC50 is 1 to 10 µM.
With `O=C(Nc1cc(Br)cc2c1C(c1cc(F)ccc1Cl)NC2=O)c1cccc(C(F)F)c1` (centres unmarked) [Compound I-570], the IC50 lay within 1 to 10 µM.
The result for `Cc1ccccc1C1NC(=O)c2cccc(NC(=O)c3noc4c3CCCCC4)c21` (centres unmarked) [Compound I-292] reads 10 to 100 µM.
`Cc1ccccc1C1NC(=O)c2cc(C(F)F)cc(NC(=O)c3cc(F)cc(C(F)(F)F)c3)c21` (centres unmarked) [Compound I-692] gave an IC50 of 0.1 to 0.5 µM.
